Where two headings read alike, the source gives them in different places.
Experiments:
[1] = molecular target: T1, human recombinant PARP1 (Homo sapiens, UniProt P09874); experiment: PARP inhibitory activity measurement test (Universal Colorimetric PARP Assay kit, Trevigen); type: biochemical; conditions: compound concentration: 10 μM, read-out: PARP1 inhibition rate (%)
T1 construct: purchased Trevigen 4677-096-K
Procedure: For evaluating PARP inhibitory activity of the present compound, inhibitory activity of each test compound against human recombinant PARP 1 was measured using Universal Colorimetric PARP Assay kit with Histone-Coated Strip Wells (Cat No.: 4677-096-K) available from Trevigen. The test was conducted according to the procedure in the instruction attached to this kit. The concrete operation will be described below.
After dissolving the test compound in dimethyl sulfoxide, the solution was diluted with a PARP buffer attached to the kit to prepare a 50 μM test compound solution.
In each well of a histone-coated 96-well plate, 10 μL of the test compound solution (50 μM), 15 μL of human recombinant PARP1 (33.3 Unit/mL) and 25 μL of PARP cocktail (containing activated DNA and biotinated NAD) were added, and incubated at room temperature for 1 hour (final reaction amount: 50 μL). Each well was washed twice with 200 μL of 0.1% Triton-X-containing Dulbecco's phosphate buffer, and further washed twice with 200 μL of Dulbecco's phosphate buffer, and then 50 μL of Strep-HRP was added, followed by incubation at room temperature for 1 hour. Each well was washed twice with 200 μL of 0.1% Triton-X-containing Dulbecco's phosphate buffer, and further washed twice with 200 μL of Dulbecco's phosphate buffer, and then 50 μL of TACS-Sapphire coloriometric substrate was added, followed by incubation at room temperature for 15 minutes. After stopping the reaction by adding 50 μL of 0.2 M HCl, absorbance at 450 nm (Abs 450) was measured by a microplate reader. The number of examples in each group was 1 to 2.
Using a well into which dimethyl sulfoxide and a PARP buffer were added in place of the test compound solution and human recombinant PARP1, the above operation was conducted as a negative control.
Using a well into which a PARP buffer containing dimethyl sulfoxide was added in place of the test compound solution, the above operation was conducted as a positive control.
PARP1 inhibition rate (%) was calculated according to the following Formula 1. PARP1 inhibition rate(%)=(AbsB−AbsX)/(AbsB−AbsA)×100 [Formula 1]
AbsA: absorbance of negative control (Abs 450)
AbsB: absorbance of positive control (Abs 450)
AbsX: absorbance of test compound-treated group (Abs 450)

[2] = tested on: rat thrombin-induced retinal vascular hyperpermeability model; experiment: Retinal vascular hyperpermeability inhibitory activity in rat thrombin model (intravitreal protein concentration, Bradford method); type: in vivo; conditions: thrombin 3 U/eye intravitreal; test compound 100 mg/kg orally 1.5 hours before and 22.5 hours after thrombin; Brown Norway male rats
Procedure: For examining the influence of the present compound on retinal vascular hyperpermeability, the retinal vascular hyperpermeability inhibitory activity of the test compound was evaluated using a rat thrombin-induced retinal vascular hyperpermeability model. The rat thrombin-induced retinal vascular hyperpermeability model is an animal in which retinal vascular permeability is increased by administration of thrombin, and is used as a model animal for diabetic retinopathy, diabetic macular edema and so on (IONS, 2000, 41(4), S18, 92).
A thrombin liquid preparation was intravitreally administered to 8-week old Brown Norway male rat at a dose of 3 U/eye, and the vitreous body was collected on the next day of administration, and intravitreal protein concentration was measured by the Bradford method. A normal control group received intravitreal administration of DPBS. The number of examples in each group was 4 rats (7-8 eyes).
(Administration Method) • Test compound-administered group: A solution of each test compound suspended in 1% (w/v) methylcellulose aqueous solution was orally administered in a dose of 100 mg/kg, 1.5 hours before and 22.5 hours after thrombin administration. • Normal control group and vehicle-administered group
According to the following Formula 3, retinal vascular hyperpermeability inhibition rate was calculated. […]

[3] = tested on: rat N-methyl-N-nitrosourea (MNU)-induced retinal degeneration model; experiment: Retinal degeneration inhibitory activity in rat MNU-induced model (retinal volume by OCT); type: in vivo; conditions: po, 168 h, seventh day, Brown Norway male rats, read-out: Retinal volume reduction inhibition rate (%); for inhibition in vivo at 10 mg/kg: test compound 10 mg/kg orally once 30 minutes before MNU
Procedure: For examining influence of the present compound on the retinal degeneration, retinal degeneration inhibitory activity of test compound was evaluated, using a rat N-methyl-N-nitrosourea (hereinafter, “MNU”)-induced retinal degeneration model. The rat MNU-induced retinal degeneration model is a model animal in which cell death of retinal photoreceptor cell is induced by administration of MNU which is a DNA alkylation agent, and is generally used as a model animal for chorioretinal degenerative diseases such as retinitis pigmentosa (Exp. Eye. Res., 84(2), 285-292 (2007)).
By the previous day of MNU administration, retinal volumes of 8-week-old Brown Norway male rats were measured by using optical coherence tomography (OCT) (product of Carl Zeiss, model number: STRATUS OCT Model 3000). An MNU administration liquid was intraperitoneally administered to the rats at a dose of 50 to 60 mg/kg, and on the seventh day after administration, retinal volumes were measured by using OCT. The normal control group underwent no treatment, and retinal volumes were measured on the same day as the MNU administration group. The number of examples in each group was 4 rats (8 eyes).
(Administration Method) • Test compound-administered group: A solution of each test compound suspended in 1% (w/v) methylcellulose aqueous solution was orally administered once 30 minutes before MNU administration at a dose of 1 to 30 mg/kg. • Normal control group and vehicle-administered group: 1% (w/v) methylcellulose aqueous solution was orally administered once 30 minutes before MNU administration.
According to the following Formula 2, retinal volume reduction inhibition rate (%) was calculated. Retinal volume reduction inhibition rate(%)=(RVX-pre/RVX-post−RVB-pre/RVB-post)/(RVA-pre/RVA-post−RVB-pre/RVB-post)×100 [Formula 2]
RVA-pre: retinal volume before MNU administration of normal control group (mm^3)
RVA-post: retinal volume on the seventh day after MNU administration of normal control group (mm^3)
RVB-pre: retinal volume before MNU administration of vehicle-administered group (mm^3)
RVB-post: retinal volume on the seventh day after MNU administration of vehicle-administered group (mm^3)
RVX-pre: retinal volume before MNU administration of test compound-administered group (mm^3)
RVX-post: retinal volume on the seventh day after MNU administration of test compound-administered group (mm^3)

T1 sequence (P09874 whole entry): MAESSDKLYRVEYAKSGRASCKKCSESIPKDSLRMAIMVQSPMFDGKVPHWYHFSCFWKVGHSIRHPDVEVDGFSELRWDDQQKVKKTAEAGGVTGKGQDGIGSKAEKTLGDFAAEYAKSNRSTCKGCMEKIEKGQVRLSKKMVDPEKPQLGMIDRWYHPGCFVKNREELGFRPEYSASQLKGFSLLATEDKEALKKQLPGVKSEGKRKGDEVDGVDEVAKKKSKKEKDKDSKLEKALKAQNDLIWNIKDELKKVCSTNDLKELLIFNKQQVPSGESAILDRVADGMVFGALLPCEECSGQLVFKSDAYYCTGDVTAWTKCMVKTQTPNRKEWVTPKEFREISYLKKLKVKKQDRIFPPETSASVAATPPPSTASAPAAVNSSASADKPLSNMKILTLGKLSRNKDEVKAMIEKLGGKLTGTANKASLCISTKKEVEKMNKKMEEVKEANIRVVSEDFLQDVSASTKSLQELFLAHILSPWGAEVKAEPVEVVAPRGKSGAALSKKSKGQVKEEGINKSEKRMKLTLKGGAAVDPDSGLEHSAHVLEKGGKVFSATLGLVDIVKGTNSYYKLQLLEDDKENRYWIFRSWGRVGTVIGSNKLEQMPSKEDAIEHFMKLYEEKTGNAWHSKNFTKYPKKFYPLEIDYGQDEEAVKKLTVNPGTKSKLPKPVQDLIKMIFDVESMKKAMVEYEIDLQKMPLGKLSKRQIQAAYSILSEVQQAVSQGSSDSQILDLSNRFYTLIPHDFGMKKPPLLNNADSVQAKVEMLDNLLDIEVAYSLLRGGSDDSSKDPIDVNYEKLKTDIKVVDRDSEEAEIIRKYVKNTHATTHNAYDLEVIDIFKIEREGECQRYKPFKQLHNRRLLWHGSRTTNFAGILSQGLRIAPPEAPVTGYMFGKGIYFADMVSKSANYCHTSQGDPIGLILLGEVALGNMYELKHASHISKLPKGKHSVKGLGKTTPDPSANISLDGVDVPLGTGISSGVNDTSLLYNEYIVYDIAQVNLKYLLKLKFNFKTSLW

| inhibition at 10 µM [1] [%] | Compound | inhibition in vivo at 10 mg/kg ([3]; MNU 50 mg/kg i.p.) [%] | also measured |
| --- | --- | --- | --- |
| 100 | O=c1[nH]c2cc(CN3CCN(c4ccc(F)cc4)CC3)cn2c2ccccc12 [Compound 2-1, 2-[4-(4-Fluorophenyl)piperazin-1-ylmethyl]pyrrolo[1,2-a]quinazolin-5 (4H)-one] | – | Retinal vascular hyperpermeability inhibition rate (%) [2]: 63%; inhibition in vivo at 10 mg/kg ([3]; MNU 60 mg/kg i.p.): 65% |
| 96 | O=c1[nH]c2cc(CN3CCC(c4ccccc4)CC3)cn2c2ccccc12 [Compound 2-5, 2-(4-Phenylpiperidin-1-ylmethyl)pyrrolo[1,2-a]quinazolin-5(4H)-one] | 16 | – |
| 99 | O=c1[nH]c2cc(CN3CCN(c4ccccc4F)CC3)cn2c2ccccc12 [Compound 2-9, 2-[4-(2-Fluorophenyl)piperazin-1-ylmethyl]pyrrolo[1,2-a]quinazolin-5(4H)-one] | 25 | – |
| 100 | O=c1[nH]c2cc(CN3CCN(c4ccc(Cl)cc4)CC3)cn2c2ccccc12 [Compound 2-12, 2-[4-(4-Chlorophenyl)piperazin-1-ylmethyl]pyrrolo[1,2-a]quinazolin-5(4H)-one] | – | inhibition in vivo at 30 mg/kg ([3]; MNU 60 mg/kg i.p., test compound 30 mg/kg orally once 30 minutes before MNU): 47% |
| 100 | O=c1[nH]c2cc(CN3CCC(c4ccc(F)cc4)CC3)cn2c2ccccc12 [Compound 2-14, 2-[4-(4-Fluorophenyl)piperidin-1-ylmethyl]pyrrolo[1,2-a]quinazolin-5(4H)-one] | 33 | – |
| 100 | COc1ccc(N2CCN(Cc3cc4[nH]c(=O)c5ccccc5n4c3)CC2)cc1 [Compound 2-16, 2-[4-(4-Methoxyphenyl)piperazin-1-ylmethyl]pyrrolo[1,2-a]quinazolin-5(4H)-one] | 29 | – |
| 100 | O=c1[nH]c2cc(CN3CCN(c4ccccn4)CC3)cn2c2ccccc12 [Compound 2-17, 2-[4-(Pyridin-2-yl)piperazin-1-ylmethyl]pyrrolo[1,2-a]quinazolin-5(4H)-one] | 48 | – |
| 100 | O=c1[nH]c2cc(CN3CCN(c4ccc(Cl)cn4)CC3)cn2c2ccccc12 [Compound 2-30, 2-[4-(5-Chloropyridin-2-yl)piperazin-1-ylmethyl]pyrrolo[1,2-a]quinazolin-5(4H)-one] | 72 | – |
| 100 | O=c1[nH]c2cc(CN3CCN(c4ccc(F)cc4F)CC3)cn2c2ccccc12 [Compound 2-35, 2-[4-(2,4-Difluorophenyl)piperazin-1-ylmethyl]pyrrolo[1,2-a]quinazolin-5(4H)-one] | 61 | – |
| 100 | COc1cc(F)ccc1N1CCN(Cc2cc3[nH]c(=O)c4ccccc4n3c2)CC1 [Compound 2-39, 2-[4-(4-Fluoro-2-methoxyphenyl)piperazin-1-ylmethyl]pyrrolo[1,2-a]quinazolin-5(4H)-one] | 84 | – |
| 100 | O=c1[nH]c2cc(CN3CCN(c4ccc5c(c4)OCO5)CC3)cn2c2ccccc12 [Compound 2-40, 2-[4-(1,3-Benzodioxol-5-yl)piperazin-1-ylmethyl]pyrrolo[1,2-a]quinazolin-5(4H)-one] | 88 | – |
| 98 | O=c1[nH]c2cc(CN3CCN(c4ccccn4)CC3)cn2c2ccc(F)cc12 [Compound 2-44, 7-Fluoro-2-[4-(pyridin-2-yl)piperazin-1-ylmethyl]pyrrolo[1,2-a]quinazolin-5(4H)-one] | 81 | – |
| 100 | O=c1[nH]c2cc(CN3CCN(c4ccc(F)cc4)CC3)cn2c2ccc(F)cc12 [Compound 2-45, 7-Fluoro-2-[4-(4-fluorophenyl)piperazin-1-ylmethyl]pyrrolo[1,2-a]quinazolin-5(4H)-one] | – | inhibition in vivo at 1 mg/kg ([3]; MNU 50 mg/kg i.p., test compound 1 mg/kg orally once 30 minutes before MNU): 81% |
| 100 | [2H]C([2H])(c1cc2[nH]c(=O)c3ccccc3n2c1)N1CCN(c2ccc(F)cc2)CC1 [Compound 4-1, 2-[1-[4-(4-Fluorophenyl)piperazin-1-yl]-1,1-dideuteriomethyl]pyrrolo[1,2-a]quinazolin-5(4H)-one] | 94 | – |

| Compound | inhibition at 10 µM [1] [%] | inhibition in vivo at 10 mg/kg ([3]; MNU 50 mg/kg i.p.) [%] | also measured |
| --- | --- | --- | --- |
| O=c1[nH]c2cc(CN3CC=C(c4ccc(Cl)cc4)CC3)cn2c2ccccc12 [Compound 2-7, 2-[4-(4-Chlorophenyl)-1,2,3,6-tetrahydropyridine-1-ylmethyl]pyrrolo[1,2-a]quinazolin-5(4H)-one] | 99 | 69 | – |
| O=c1[nH]c2cc(CN3CC=C(c4ccc(F)cc4)CC3)cn2c2ccccc12 [Compound 2-8, 2-[4-(4-Fluorophenyl)-1,2,3,6-tetrahydropyridin-1-ylmethyl]pyrrolo[1,2-a]quinazolin-5(4H)-one] | 100 | 39 | – |

From US9062061B2, “Compound having PARP inhibitory activity” (SANTEN PHARMACEUTICAL CO., LTD., priority 2011, dated 2015)
